Experimental data from PubChem BioAssay AID179 (DTP/NCI, 2004).
The source made the active and inactive calls.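 How the source made its calls: active means compounds giving half or more protection of infected cells from virus-caused growth loss, again on retest; inactive means the rest.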 Where a SMILES comes first, the peptide text is derived from it. The star is where a group is joined. Boc = CC(C)(C)OC(=O)*; OBn = c1ccc(CO*)cc1

Test system: CEM cells HIV-1 protection, formazan growth assay
Experiment: NCI AIDS Antiviral Assay
Settings: for IC50: measured here: growth of uninfected CEM cells
Outline: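 Screen of anti-HIV-1 activity in human CEM cells using a formazan-based growth measurement at five drug concentrations. Hits with 50% or greater protection were repeated, and confirmation required reproducible complete protection.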

SMILES | EC50 | IC50 | outcome
O=[N+]([O-])c1ccc(/C=C/C=C/C=C/C=C/c2ccc(S(=O)(=O)F)cc2Cl)c(Cl)c1 | > 200 µM | 186 µM | 
CCCCn1c(-c2ccc(Cl)cc2)cs/c1=N\Nc1nc2c(c(=O)n(C)c(=O)n2C)n1C | > 33.1 µM | 11 µM | 
CC(C)C1CSC2N1C(=O)C2(OCc1ccccc1)C1CC1 (stereo not given) | > 200 µM | 81.3 µM | 
CCOC(=O)c1ccc2c(=O)[nH]nc(CO)c2c1 | > 200 µM | 117 µM | 
COc1cc(C[P+](c2ccccc2)(c2ccccc2)c2ccccc2)cc(OC)c1OC | > 479 µM | 33.1 µM | 
COc1cc(C2(C)OC(=O)c3ccccc32)c(OC)c2ccccc12 (stereo not given) | > 44.7 µM | 7.76 µM | 
COc1ccccc1-c1csc(CCC(N)C(=O)O)n1 (stereo not given) |  |  | inactive
Cn1c(=O)c2nccnc2n(C)c1=O | 178 µM | > 200 µM | 
O=C(NNc1ccccc1)NNc1ccccc1 (tested in a mixture with another compound) | > 200 µM | 31.6 µM | 
NC(CCC(=O)OCc1ccccc1)C(=O)NC(CCC(=O)OCc1ccccc1)C(=O)O (stereo not given) (H-Glu(OBn)-Glu(OBn)-OH; configuration not given here) | > 1000 µM | > 1000 µM | 
CCOP(=S)(N/N=C1\CC2CCC1C2)OCC (stereo not given) | > 200 µM | > 200 µM | 
CCOC(=O)C(/C=N\C(=S)Nc1c(CC)cccc1C(C)(C)C)=C(/O)c1ccccc1 | > 200 µM | > 200 µM | 
C[CH2][Pb]([CH2]C)([CH2]C)[O]C(=O)C(F)(F)F | > 200 µM | 31.6 µM | 
COC(=O)C1C(=O)NC2(C)CC1c1ccccc1O2 (stereo not given) |  |  | inactive
NC1=C(Cl)C(=O)c2ccccc2C1=O | > 200 µM |  | 
CCOC(=O)C(C(=O)OCC)=S1c2ccccc2Sc2ccccc21 | > 200 µM | > 200 µM | 
N#C/C(=C\NC(=S)C(N)=S)C(=O)c1ccc2ccccc2c1 | > 200 µM | 58.9 µM | 
COc1ccc([C@H]2C=[N+]([O-])O[C@H](OC3CCCC3)[C@@H]2OC(C)=O)cc1OC | > 200 µM | 11.2 µM | 
CC(=O)OC12CC(C)C3(O)C4C=C(C)C(=O)[C@@]4(O)CC(CO)=C[C@H]3C1C2(C)C (stereo not given in full) |  |  | active
O=S(=O)(/C=C/C=C/S(=O)(=O)c1ccccc1)c1ccccc1 | > 2 µM | 0.251 µM | 
CCOC(=O)c1[nH]c(Br)c(-c2ccc(Br)cc2)c1Br | > 2 µM | 0.912 µM | 

SMILES | EC50 | IC50 | outcome
Cn1c(=O)c2[nH]c(N/N=N/c3nncs3)nc2n(C)c1=O | > 200 µM | > 200 µM | 
COC(OC)C1OC(CO)C(n2ccc(N)nc2=O)C1O (stereo not given) | > 200 µM | > 200 µM | 
Cc1ccc(N=Nc2c(N)nn3cc4c(nc23)-c2ccccc2CC4)cc1 | > 100 µM | > 100 µM | 
CC(C)NC(=O)OCc1c(COC(=O)NC(C)C)c(-c2ccc(Cl)c(Cl)c2)n2c1CCC2 | > 7.41 µM | 4.47 µM | 
CN(C)/C=C/c1c2c(nc3ccccc13)C(=O)c1ccccc1C2=O | > 100 µM | 2.24 µM | 
CCOP(=O)(OCC)[C@]12C[C@@H](C)C=C[C@H]1COC2=O | > 200 µM | 135 µM | 
C=CCC[CH2][Sn]([c]1ccccc1)([c]1ccccc1)[c]1ccccc1 |  |  | inactive
Cn1ccnc1.Cn1ccnc1.NCCN.[Cl-].[Pt+4] | > 200 µM | > 200 µM | 
CC1(COc2ccccc2OCC2(C)CO2)CO1 (stereo not given) | > 1000 µM | 16.6 µM | 
N#C/C(=C\c1ccc(O)c(O)c1)C(=O)N[C@@H]1CCC[C@@H](NC(=O)/C(C#N)=C/c2ccc(O)c(O)c2)C1 | > 200 µM | 12.3 µM | 
CC1OC(c2ccccc2)=CC(OCc2ccccc2)[C@H]1OCc1ccccc1 (stereo not given in full) | > 200 µM | 91.2 µM | 
O=C(NNCC(O)COc1ccccc1)c1ccccc1 (stereo not given) | > 200 µM | > 200 µM | 
C/C(=N/OC(=O)N(C)C)c1ccccc1 | > 200 µM | > 200 µM | 
O=c1cc2c(Cl)cccc2n[nH]1 | > 195 µM | > 195 µM | 
CC(C)CCCC(C)C1CCC2[C@@H]3CCC4C[C@@H](CC=C(c5cc(Cl)c(O)c(C(=O)O)c5)c5cc(Cl)c(O)c(C(=O)O)c5)CC[C@]4(C)C3CC[C@]12C (stereo not given in full) | 21.4 µM | 316 µM | 
[Br][Ni][Br].[NH-]CC[NH-].[NH-]CC[NH-] | > 200 µM | 67.6 µM | 
Cc1cccc(C2NC(=O)N3C(c4cccc(C)c4)NC(=O)N23)c1 (stereo not given) | > 200 µM | 38 µM | 
O=C(/C=C\c1ccc(O)c(O)c1)OC1C(O)CC(OC(=O)/C=C/c2ccc(O)c(O)c2)(C(=O)O)CC1O (stereo not given) | > 200 µM | 30.2 µM | 
O=S(=O)(O)c1ccc(N=Nc2ccc(N=Nc3cccc4ccccc34)c(S(=O)(=O)O)c2)cc1 | > 50.1 µM | > 50.1 µM | 
CCC1OC2CS(=O)(=O)CC2O1 (stereo not given) | > 1290 µM | > 1290 µM | 
COC(=O)C(Cc1c[nH]c2ccccc12)NC(=O)C(Cc1c[nH]c2ccccc12)NC(=O)C(Cc1c[nH]c2ccccc12)NC(=O)C(Cc1c[nH]c2ccccc12)NC(=O)C(Cc1c[nH]c2ccccc12)NC(=O)C(Cc1c[nH]c2ccccc12)NC(=O)C(Cc1c[nH]c2ccccc12)NC(=O)OC(C)(C)C (stereo not given) (Boc-WWWWWWW-OMe; configuration not given here) | > 100 µM | 58.9 µM | 

SMILES | EC50 | IC50 | outcome
COc1cc(O)c2cc1Oc1ccc(cc1)CC1=NCCc3cc(OC)c(cc31)Oc1c(OC)c(OC)c(OC)c3c1[C@H](C2)N(C)CC3 |  |  | inactive
CN(C)CC(/C(Cc1ccccc1)=N\NC(=O)C[n+]1ccccc1)c1ccccc1 (stereo not given) | > 295 µM | 138 µM | 
COc1cc2c3cc1Oc1c(O)c(OC)cc4c1[C@H](Cc1ccc(cc1)Oc1cc(ccc1O)C[C@H]3N(C)CC2)N(C)CC4 |  |  | inactive
CC(=O)NNC(=O)c1ccccc1O | > 200 µM | 29.5 µM | 
CC1SC(c2ccccc2)N(Nc2c3ccccc3nc3ccccc23)C1=O (stereo not given) | > 67.6 µM | > 67.6 µM | 
COC1CC(OC2C(C)OC(OC3C(C)OC(OC4C(C)OC(O[C@H]5CC[C@@]6(C)C(=CC[C@]7(O)[C@@H]6C[C@@H](OC(C)=O)[C@@]6(C)[C@]7(O)CC[C@@]6(O)C(C)=O)C5)CC4OC)CC3OC)CC2OC)OC(C)C1O (stereo not given in full) | > 200 µM | > 200 µM | 
COc1cc(CC2Cc3cccc(=O)c(O)c3C(=O)O2)cc(OC)c1OC (stereo not given) | > 120 µM | 17.4 µM | 
COCC12CCC(OC)C34C5CC6(O)C(OC)C=C(C5C6OC(=O)c5ccccc5)C(C(OC)C13)C4N(C)C2 (stereo not given) |  |  | inactive
Cn1c(=O)n2c(-c3ccccc3)c(-c3ccccc3)n2c1=O | > 200 µM | 102 µM | 
O=c1[nH]nc(Nc2ccc(Cl)cc2)c2nnn(C3CCCCC3)c12 | > 200 µM | > 200 µM | 
Cc1cc2c(-c3ccccc3)c3cc(C)c(N)cc3nc2cc1N | > 200 µM | 2.75 µM | 
O=C(N/N=C/c1cc(S(=O)(=O)O)c2cccnc2c1O)C(=O)N/N=C/c1cc(S(=O)(=O)O)c2cccnc2c1O | > 200 µM | 41.7 µM | 
COC(C(O)c1ccc2c(c1)OCO2)P(=O)(c1ccccc1)c1ccccc1 (stereo not given) |  |  | inactive
O=c1ccn(C2OC(CO)C(O)C2[Se]c2ccccc2)c(=O)[nH]1 (stereo not given) | > 200 µM | > 200 µM | 
O=c1[nH]n(Cc2ccccc2Cl)c2ccccc12 | > 200 µM | > 200 µM | 
CCSC(SCC)C(O)C(O)C(O)C(O)C(O)C(O)CO (stereo not given) |  |  | inactive
COc1c2c(c(OC)c3c(=O)cc(C/C(=N/NC(=O)C[n+]4ccccc4)C(=O)Nc4cc(C)ccc4C)oc13)OCO2 | > 30.9 µM | > 30.9 µM | 
CCOC(=O)C1C[C@H]2CO[C@H](c3ccccc3)N2C1=O (stereo not given in full) | > 200 µM | > 200 µM | 
NCCCCNCCCN1CCOC1=O | > 200 µM | > 200 µM | 
Cc1nc2c(=O)n(-c3ccccc3)c(=O)n(-c3ccccc3)c2o1 | > 200 µM | > 200 µM | 
O=S1CCS(=O)CCS(=O)CC1 (stereo not given) | > 16.6 µM | > 16.6 µM | 

SMILES | EC50 | IC50 | outcome
S=C(Nc1ccccc1)Nc1ccccc1SC(/C=C/NNC1=NC(c2ccccc2)C(c2ccccc2)=NN1)c1ccccc1 (stereo not given) | > 15.5 µM | > 15.5 µM | 
CC1=C(c2ccccc2)CON(c2ccccc2)C1 | > 53.7 µM | > 53.7 µM | 
Cn1c(=O)c2c3ccccc3c(C(=O)c3ccccc3)n2c2ccccc21 | > 51.3 µM | 3.09 µM | 
NC(C(F)(F)F)(C(F)(F)F)P(=O)(Cc1ccccc1)Cc1ccccc1 | > 200 µM | 145 µM | 
COc1ccc(/C=C2\C=C3OCOC3=CC2=O)cc1 | > 10.7 µM | > 10.7 µM | 
C=C[C@@H](OCOCC[Si](C)(C)C)[C@@H](CC)OC(CCCOC(=O)C(C)(C)C)OC (stereo not given in full) | > 200 µM | > 200 µM | 
[O-]c1c2cc(-[n+]3c(-c4ccccc4)cc(-c4ccccc4)cc3-c3ccccc3)cc1CO[C@@H](c1ccccc1)[C@H](c1ccccc1)OCc1cccc(n1)CO[C@@H](c1ccccc1)[C@H](c1ccccc1)OC2 | > 1 µM | 0.0794 µM | 
C=C(C)C(CC=C(C)C)Cc1c(O)cc(OC)c2c1OC(c1ccc(O)cc1O)C(O)C2=O (stereo not given) | > 200 µM | 29.5 µM | 
CCCCCCCCCC1CC(=O)Oc2cccc(O)c21 (stereo not given) | > 25.1 µM | > 25.1 µM | 
CC(=O)O[C@@H](c1nccn1Cc1ccccc1)[C@H]1OC(C)(C)O[C@@H]1[C@H]1COC(C)(C)O1 | > 200 µM | > 200 µM | 
CCOC(=O)C1(C/C=C/CBr)Cc2ccccc2C1=O (stereo not given) | > 200 µM | 1.66 µM | 
N#C[C@H](C(=O)c1ccccc1F)c1nc2ccccc2[nH]1 | 170 µM | > 200 µM | 
Cc1cccc([P+](Cc2ccccc2)(c2cccc(C)c2)c2cccc(C)c2)c1 | > 200 µM | 0.589 µM | 
CS(=O)(=O)NNS(=O)(=O)c1ccccc1 | > 75.9 µM | > 75.9 µM | 
O=C1C(Cl)=C(Cl)C(=O)N1c1c(F)c(F)c(F)c(F)c1F |  |  | inactive
COc1ccc(C23OCCN2C(=O)c2ccccc23)cc1 (stereo not given) | > 200 µM | 19.1 µM | 
COc1cc(Br)c2nsnc2c1 | > 29.5 µM | > 29.5 µM | 
CCC(=O)[O-].CCC(=O)[O-].N.N.N.N.[Co+3].[O-][Cl+3]([O-])([O-])[O-] |  |  | inactive
